The record followed here is paper PMC11641365, “Evaluation of In Vitro Biological Activity of Flavanone/Chromanone Derivatives: Molecular Analysis of Anticancer Mechanisms in Colorectal Cancer” (International Journal of Molecular Sciences, 2024).

Structures are written as SMILES. Like-named read-outs stand apart in the source and are kept apart here.

For data set [1], the system named is SW620. Nature of the data set: Mitochondrial membrane potential (ΔΨm), JC-1 probe. The data set is classed as cell-based, human. The note with it: compound at IC50, vs control. The text has this:
Changes in mitochondrial potential in cancer cells exposed to the tested derivatives were monitored using the fluorescent probe JC-1. In non-apoptotic cells, JC-1 aggregates emit red-orange fluorescence. During changes in mitochondrial membrane potential, such as those associated with the initiation of PCD stages (both hyperpolarization and depolarization of mitochondrial membranes), JC-1 is converted to monomers, emitting green fluorescence.
5,5,6,6-Tetrachloro-1,1,3,3-tetraethylbenzimidazolylcarbocyanine iodide (JC-1) is one of the most reliable fluorescent probes used to assess changes in mitochondrial membrane potential (ΔΨ). In living cells with intact mitochondrial membranes, the lipophilic, cationic dye JC-1 penetrates the negatively charged mitochondrial matrix as a monomer, where it forms fluorescent aggregates with red-orange fluorescence (λex = 514 nm, λem = 590). […] The fluorescence ratio of aggregates (λem = 590 nm) and monomers (λem = 529 nm)—590 nm/529 nm—reflects the level of damage to the mitochondrial membrane.
Cells were seeded in black 96-well fluorometric microplates at a density of 10 × 10^3 cells/mL. […] Following treatment, the medium was removed, and the cell monolayers were washed twice with HBSS (140 mM NaCl, 5 mM KCl, 0.8 mM MgCl2, 1.8 mM CaCl2, 1 mM Na2HPO4, 10 mM HEPES, and 1% glucose). Then, 50 μL of a JC-1 solution in HBSS was added to each well, and the cells were incubated for 30 min in the dark at 37 °C (final JC-1 concentration 5 μM). After removing the fluorescent dye and replacing it with fresh HBSS, fluorescence measurements were taken using a Perkin-Elmer LS-5B spectrofluorometer (Perkin-Elmer LS-5B spectrofluorometer, Waltham, MA, USA). The excitation and emission wavelengths for JC-1 monomers were 514 nm and 529 nm, respectively, while for aggregates, they were 514 nm and 590 nm. The results were expressed as a percentage change in the fluorescence ratio of JC-1 aggregates to JC-1 monomers compared to the control, which was set at 100%.

The test system of a further data set is HT-29. Nature of the data set: MTT cell viability assay. The following applies: for IC50: HT-29, 24 h incubation with compound, mean ± SD of three experiments, read-out: Cytotoxic effect, IC50; for IC50 difference, HT-29 vs other cell lines: HT-29, difference of IC50 values, read-out: IC50 in HT-29 higher compared to the other cell lines. The data set is classed as cell-based, human. The protocol: (§1) The cytotoxic activity of the 3-benzylideneflavanones, 3-benzylidenechromanones derivatives (compounds 1, 2, 3, 4, 5) and 5′-(3-methoxyphenyl)-2-phenyl-4′,5′-dihydro-4H-spiro[chromano-3,3′-pirazol]-4-one (compound 3a) was evaluated using the MTT assay (4,5-dimethylthiazol-2-yl)-2,5-diphenyltetrazoliumbromide), a colorimetric method that quantifies cell viability.
(§2) Cell viability was determined using the metabolic microplate spectrophotometric assay with Methylthiazolyl diphenyltetrazolium bromide (MTT) (Sigma-Aldrich; St. Louis, MO, USA). The MTT method belongs to metabolic tests for determining cell viability and consists of measuring the absorbance of a violet solution of formazan, a product of the reduction of a water-soluble yellow MTT by oxidoreductive enzymes (mainly mitochondrial succinate dehydrogenase) of living cells. The amount of the reaction product (water-insoluble formazan crystals) is proportional to the number of living and metabolically active cells in the sample. In the case of damaged or dead cells, formazan is formed in smaller amounts, or it is not formed.
(§3) The appropriate number of cells for a given cell line (6–8 × 10^3 cells/mL) were seeded onto colorless, sterile 96-well microplates (Nunc, Roskilde, Denmark) in the number appropriate for a given cell line. After 24 h of culture, various concentrations of the studied compounds (10^−7–10^−5 M) freshly prepared in DMSO (final concentration DMS < 0.1%) and diluted with complete culture medium were added and incubated in a CO2 incubator for 24 h. After this time, the medium was removed; the cell monolayer was washed twice with sterile PBS solution; and fresh culture medium was added to the microplate wells. After 48 h of cell culture, the MTT test was performed. A volume of 50 μL of tetrazolium salt solution (final concentration 0.05 mg/mL) was added to each microplate well. The microplate was placed for 3–4 h (depending on the cell line) in a CO2 incubator. After incubation, 100 μL of DMSO was added to the wells of the microplate to dissolve the purple formazan crystals formed in the living cell environment. The absorbance of the formazan solution, after gentle mixing, was read at a wavelength of λ = 580 nm and a reference wavelength of λ = 720 nm (Biotek Power Wave HT, Biotek Instruments, Winooski, VT, USA). The percentage of living cells was calculated by comparing the absorbance value of the tested samples with the absorbance value of the control (cells not treated with compounds). The absorbance of the control was taken as 100%.
(Tetrazolium dyes change colour on reduction, which living cells bring about.)

Data set [2] concerns SW620. Nature of the data set: Autophagy induction, monodansylcadaverine (MDC) fluorescence. The note with it: compound at IC50, 24 h, vs control. In kind it is cell-based, human. The protocol:
(§4) Autophagy induction in cells treated with the tested drugs was determined by measuring Monodansylcadaverine (MDC; Sigma-Aldrich; St. Louis, MO, USA) fluorescence according to a modified method described by Vázquez. […] In the cell, MDC accumulates in lipid-rich cell membranes. It has been shown that MDC can be used as a dye for detecting autophagy, as it accumulates in autophagolysosomes as a result of interaction with membrane lipids.
(§5) Cells were seeded in black 96-well fluorometric microplates at a density of 10 × 10^3 cells/mL. […] Following compound incubation, the medium was removed, and the cell monolayers were washed twice with HBSS (140 mM NaCl, 5 mM KCl, 0.8 mM MgCl2, 1.8 mM CaCl2, 1 mM Na2HPO4, 10 mM HEPES, and 1% glucose). A solution of MDC at a final concentration of 50 μM was added to each well and incubated in a CO2 cell culture incubator at 37 °C for 15 min. After incubation with MDC, the probe was removed, and the cells were lysed with 50 μL of lysis buffer (10 mM TRIS-HCl; pH 8 containing 0.1% Triton X-100). After lysis, fluorescence was measured at an excitation wavelength of λex = 390 nm and an emission wavelength of λem = 460 nm using a Perkin-Elmer LS-5B spectrofluorometer (Waltham, MA, USA). In order to normalize the number of cells in individual samples, the amount of DNA was determined by adding 50 μL of EB (final concentration 0.2 mM) to each well after measuring the MCB fluorescence and measuring the EB fluorescence at an excitation wavelength of λex = 530 nm and an emission wavelength of λem = 590 nm. The results were calculated as the ratio of MDC fluorescence to EB fluorescence.

For data set [3], the system named is LoVo. The description is as above. The following applies: compound at IC50, 24 h, vs control. The data set is classed as cell-based, human. As for the experimental part: as §4, §5
For data set [4], the system named is SW620. Briefly: MTT cell viability assay. In kind it is cell-based. The following applies: Homo sapiens, SW-620, 24 h incubation with compound, mean ± SD of three experiments, read-out: Cytotoxic effect, IC50. As for the experimental part:
as §1, §2, §3

The test system of data set [5] is LoVo. Briefly: MTT cell viability assay. In kind it is cell-based. The following applies: Homo sapiens, 24 h incubation with compound, mean ± SD of three experiments, read-out: Cytotoxic effect, IC50. The protocol: as §1, §2, §3

For the molecule `COc1cccc(/C=C2/C(=O)c3ccccc3OC2c2ccccc2)c1` (stereo not drawn) [Compound 3], the “Increase in mitochondrial membrane potential (hyperpolarization)” value in the data set with SW620 [1] is reported as around 60%. The IC50 – broadly, the concentration that gives 50% inhibition – was 117 ± 6.1 µM with HT-29; around 115 µM in the data set on HT-29 (Homo sapiens, HT-29, 24 h); 12.4 ± 2.1 µM in the data set with SW620 [4]; 23.2 ± 1.4 µM in the data set with LoVo [5]. For the same molecule, the “Change in MDC fluorescence intensity” value in the data set with SW620 [2] is on record as “no significant changes”. The “Decrease in MDC fluorescence intensity” value with LoVo [3] is 20%.

In the case of `O=C1/C(=C/c2ccccc2)C(c2ccccc2)Oc2ccccc21` (stereo not drawn) [Compound 5], in the data set with SW620 [1], the “Change in mitochondrial membrane potential ΔΨm” value is on record as “no statistically significant changes”. The IC50 came to 31.1 ± 1.4 µM in the data set on HT-29 (Homo sapiens, HT-29, 24 h); 16.7 ± 3.1 µM in the data set on SW620 [4]; 19.4 ± 2.1 µM in the data set on LoVo [5]. Also, in the data set with HT-29 (Homo sapiens), the IC50 difference, HT-29 vs other cell lines is around 10 µM. Further, the “Decrease in MDC fluorescence intensity” value in the data set on SW620 [2] came out at 20%. For the same molecule, the “Change in MDC fluorescence intensity” value in the data set on LoVo [3] was “No significant changes”.

On to `O=C1/C(=C/c2ccccc2)COc2ccccc21` [Compound 1], for which the “Increase in mitochondrial membrane potential (hyperpolarization)” value in the data set on SW620 [1] is given as “approximately 40%”. For the same molecule, the IC50 in the data set with HT-29 (Homo sapiens, HT-29, 24 h) amounted to 21.1 ± 1.3 µM; with SW620 [4], 8.1 ± 1.7 µM; with LoVo [5] it was 12.6 ± 1.5 µM. Besides, the IC50 difference, HT-29 vs other cell lines with HT-29 (Homo sapiens) is around 10 µM. In addition, the “Increase in MDC fluorescence intensity (autophagy)” value with SW620 [2] was “approximately 40%”; in the data set on LoVo [3], “approximately 20%”.
